Assay results from patent publication US9856279B2 (AGIOS PHARMACEUTICALS, INC, priority 2011, dated 2018).
pIC50: −log10 of the molar value. Read-outs that look alike come from different tables or passages of the source.

Legend:
IDH1 R132H = IDH1 R132H (Homo sapiens, UniProt O75874, R132H); experiment: Assay for IDH1 R132H inhibitors (NADPH/aKG, resazurin detection); type: biochemical; conditions: enzyme assay of Example 12; read-out: IDH1R132H IC50
In short: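 Compound added to substrate mix (8 uM NADPH, 2 mM aKG), then enzyme mix (0.2 μg/ml IDH1 R132H); 50 min RT in 20 mM Tris pH 7.5, 150 mM NaCl, 10 mM MgCl2, 0.03% BSA. Resazurin detection mix (30 μM) 5 min RT; resorufin fluorescence Ex544/Em590.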

U87MG cells = experiment: Cellular assay for IDH1m inhibitors: inhibition of 2-HG production (LC-MS, 48 hours) in U87MG cells; type: cell-based; conditions: inhibition of 2-HG production, U87R132H cells, read-out: U87R132H IC50
In short: (§1)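 5000 cells/well, DMEM + 10% FBS, overnight 37 °C/5% CO2; compound added (0.2% DMSO final), 48 h; medium sampled for LC-MS 2-HG; IC50 vs DMSO control.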

HT1080 cells = experiment: Cellular assay for IDH1m inhibitors: inhibition of 2-HG production (LC-MS, 48 hours) in HT1080 cells; type: cell-based; conditions: Homo sapiens, HT-1080; inhibition of 2-HG production, HT1080 cells; read-out: HT1080 IC50
In short: as §1

Chain of IDH1 R132H (O75874 whole entry R132H): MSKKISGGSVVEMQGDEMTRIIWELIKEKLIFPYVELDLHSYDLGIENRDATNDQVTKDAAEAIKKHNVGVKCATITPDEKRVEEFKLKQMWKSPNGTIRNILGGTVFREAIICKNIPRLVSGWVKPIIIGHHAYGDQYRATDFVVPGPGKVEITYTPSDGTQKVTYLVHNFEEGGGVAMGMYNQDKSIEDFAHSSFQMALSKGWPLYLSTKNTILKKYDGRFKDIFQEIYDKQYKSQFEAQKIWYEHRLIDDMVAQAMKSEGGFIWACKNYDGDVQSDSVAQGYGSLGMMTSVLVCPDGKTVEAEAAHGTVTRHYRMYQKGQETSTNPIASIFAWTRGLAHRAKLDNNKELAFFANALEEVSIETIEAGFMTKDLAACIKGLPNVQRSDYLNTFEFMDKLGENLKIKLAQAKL

Structure (SMILES)	pIC50 (IDH1 R132H)	pIC50 (U87MG cells; Homo sapiens, U-87 MG)	pIC50 (HT1080 cells)	pIC50 (U87MG cells)
COCCC(=O)N1CCN(c2nc(C3CC3)c(-c3c(C)noc3C)cc2C#N)C[C@H]1C [Compound 345, (R)-6-cyclopropyl-5-(3,5-dimethyl-isoxazol-4-yl)-2-[4-(3-methoxy-propionyl)-3-methyl-piperazin-1-yl]-nicotinonitrile]	> 6.30	6.00 to 6.30	5.00 to 6.00	–
COCCC(=O)N1CCN(c2nc(C3CC3)c(-c3c(C)noc3C)c(C)c2C#N)C[C@H]1C [Compound 351, (R)-6-cyclopropyl-5-(3,5-dimethyl-isoxazol-4-yl)-2-[4-(3-methoxy-propionyl)-3-methyl-piperazin-1-yl]-4-methyl-nicotinonitrile]	> 6.30	6.00 to 6.30	5.00 to 6.00	–
COCCC(=O)N1CCN(c2nc(C3CC3)c(-c3ccc(OC(F)(F)F)cc3)c(C)c2C#N)C[C@H]1C [Compound 263, (R)-6-cyclopropyl-2-(4-(3-methoxypropanoyl)-3-methylpiperazin-1-yl)-4-methyl-5-(4-(trifluoromethoxy)phenyl)nicotinonitrile]	> 6.30	5.00 to 6.00	6.00 to 6.30	–
COCCC(=O)N1CCN(c2nc(C3CC3)c(-c3ccc(F)cc3)c(C)c2C#N)C[C@H]1C1CC1 [Compound 299, (R)-6-cyclopropyl-2-(3-cyclopropyl-4-(3-methoxypropanoyl)piperazin-1-yl)-5-(4-fluorophenyl)-4-methylnicotinonitrile]	> 6.30	6.00 to 6.30	6.00 to 6.30	–
C=Cc1ccc2c(-c3cc(C#N)c(N4CCN(C(=O)C5CC5)[C@H](C5CC5)C4)nc3C3CC3)cccc2n1 [Compound 475, (R)-2-(4-(cyclopropanecarbonyl)-3-cyclopropylpiperazin-1-yl)-6-cyclopropyl-5-(2-vinylquinolin-5-yl)nicotinonitrile]	> 6.30	> 6.30	6.00 to 6.30	–
COCCC(=O)N1CCN(c2nc(C3CC3)c(OC(C)c3ccncc3)cc2C#N)C[C@H]1C (stereo partly drawn) [Compound 388, 6-cyclopropyl-2-((R)-4-(3-methoxypropanoyl)-3-methylpiperazin-1-yl)-5-(1-(pyridin-4-yl)ethoxy)nicotinonitrile]	> 6.30	6.00 to 6.30	5.00 to 6.00	–
COCCC(=O)N1CCN(c2nc(C3CC3)c(-c3cccc(CCO)c3)cc2C#N)C[C@H]1C [Compound 297, (R)-6-cyclopropyl-5-(3-(2-hydroxyethyl)phenyl)-2-(4-(3-methoxypropanoyl)-3-methylpiperazin-1-yl)nicotinonitrile]	> 6.30	5.00 to 6.00	6.00 to 6.30	–
COCCC(=O)N1CCN(c2nc(C3CC3)c(O[C@@H](C)c3ccccc3)cc2C#N)C[C@H]1C [Compound 303, 6-cyclopropyl-2-((R)-4-(3-methoxypropanoyl)-3-methylpiperazin-1-yl)-5-((S)-1-phenylethoxy)nicotinonitrile]	> 6.30	5.00 to 6.00	5.00 to 6.00	–
N#Cc1cc(-c2cccc3nc(O)ccc23)c(C2CC2)nc1N1CCN(C(=O)C2CC2)[C@H](C2CC2)C1 [Compound 476, (R)-2-(4-(cyclopropanecarbonyl)-3-cyclopropylpiperazin-1-yl)-6-cyclopropyl-5-(2-hydroxyquinolin-5-yl)nicotinonitrile]	> 6.30	> 6.30	6.00 to 6.30	–
C/C=C/C(=O)Nc1cccc(-c2cc(C#N)c(N3CCN(C(=O)CCOC)[C@H](C)C3)nc2C2CC2)c1 [Compound 415, (R,E)-N-(3-(5-cyano-2-cyclopropyl-6-(4-(3-methoxypropanoyl)-3-methylpiperazin-1-yl)pyridin-3-yl)phenyl)but-2-enamide]	> 6.30	5.00 to 6.00	5.00 to 6.00	–
C[C@@H]1CN(c2nc(C3CC3)c(-c3ccc(F)cc3)cc2C#N)CCN1C(=O)C1CC1 [Compound 550, (R)-2-(4-(cyclopropanecarbonyl)-3-methylpiperazin-1-yl)-6-cyclopropyl-5-(4-fluorophenyl)nicotinonitrile]	6.00 to 6.30	> 6.30	> 6.30	–
C=Cc1cc(-c2cc(C#N)c(N3CCN(C(=O)CCO)[C@@H](C4CC4)C3)nc2C2CC2)ccn1 [Compound 587, (S)-2-cyclopropyl-6-(3-cyclopropyl-4-(3-hydroxypropanoyl)piperazin-1-yl)-2′-vinyl-[3,4′-bipyridine]-5-carbonitrile]	> 6.30	> 6.30	> 6.30	–

Other lines, results leading:

pIC50 (IDH1 R132H)	pIC50 (U87MG cells; Homo sapiens, U-87 MG)	pIC50 (HT1080 cells)	pIC50 (U87MG cells)	Structure (SMILES)
> 6.30	> 6.30	> 6.30	–	C=Cc1cc(Nc2cc(C#N)c(N3CCN(C(=O)CCO)[C@H](C)C3)nc2C2CC2)ncn1 [Compound 617, (R)-6-cyclopropyl-2-(4-(3-hydroxypropanoyl)-3-methylpiperazin-1-yl)-5-(6-vinylpyrimidin-4-ylamino)nicotinonitrile]
> 6.30	> 6.30	> 6.30	–	C=Cc1cc(-c2c(C3CC3)nc(N3CCN(C(=O)CCC4CCCC4)[C@H](C4CC4)C3)c(C#N)c2C)ccn1 [Compound 797, (R)-6-(4-(3-cyclopentylpropanoyl)-3-cyclopropylpiperazin-1-yl)-2-cyclopropyl-4-methyl-2′-vinyl-3,4′-bipyridine-5-carbonitrile]
> 6.30	–	6.00 to 6.30	6.00 to 6.30	C=Cc1ncc2c(-c3cc(C#N)c(N4CCN(C(=O)CCO)[C@H](C5CC5)C4)nc3C3CC3)cccc2n1 [Compound 737]
> 6.30	> 6.30	> 6.30	–	C=Cc1cc(Nc2cc(C#N)c(N3CCN(C(=O)C[C@@H]4CCO4)[C@H](C4CC4)C3)nc2C2CC2)ccn1 [Compound 774, 6-cyclopropyl-2-((R)-3-cyclopropyl-4-(2-((S)-oxetan-2-yl)acetyl)piperazin-1-yl)-5-((2-vinylpyridin-4-yl)amino)nicotinonitrile]
> 6.30	> 6.30	6.00 to 6.30	–	COCC(=O)N1CCN(c2nc(C3CC3)c(Nc3ccnc(Cl)c3)cc2C#N)C[C@H]1C1CC1 [Compound 718, (R)-5-((2-chloropyridin-4-yl)amino)-6-cyclopropyl-2-(3-cyclopropyl-4-(2-methoxyacetyl)piperazin-1-yl)nicotinonitrile]
> 6.30	> 6.30	> 6.30	–	C=Cc1cc(-c2c(C3CC3)nc(N3CCN(C(=O)C[C@@H]4CCO4)[C@H](C4CC4)C3)c(C#N)c2C)ccn1 [Compound 761, 2-cyclopropyl-6-((R)-3-cyclopropyl-4-(2-((S)-oxetan-2-yl)acetyl)piperazin-1-yl)-4-methyl-2′-vinyl-3,4′-bipyridine-5-carbonitrile]
> 6.30	> 6.30	> 6.30	–	COCCC(=O)N1CCN(c2nc(C3CC3)c(Oc3cc(Cl)ncn3)cc2C#N)C[C@H]1C [Compound 666, (R)-5-((6-chloropyrimidin-4-yl)oxy)-6-cyclopropyl-2-(4-(3-methoxypropanoyl)-3-methylpiperazin-1-yl)nicotinonitrile]
> 6.30	> 6.30	> 6.30	–	C=CC(=O)N1CCC=C(c2cc(C#N)c(N3CCN(C(=O)COC)[C@H](C4CC4)C3)nc2C2CC2)C1 [Compound 728, (R)-5-(1-acryloyl-1,2,5,6-tetrahydropyridin-3-yl)-6-cyclopropyl-2-(3-cyclopropyl-4-(2-methoxyacetyl)piperazin-1-yl)nicotinonitrile]
> 6.30	> 6.30	> 6.30	–	C=Cc1cc(-c2c(C3CC3)nc(N3CCN(C(=O)C[C@H]4CCO4)[C@H](C4CC4)C3)c(C#N)c2C)cnn1 [Compound 785, 6-cyclopropyl-2-((R)-3-cyclopropyl-4-(2-((R)-oxetan-2-yl)acetyl)piperazin-1-yl)-4-methyl-5-(6-vinylpyridazin-4-yl)nicotinonitrile]
> 6.30	> 6.30	> 6.30	–	C=Cc1ccnc(Nc2cc(C#N)c(N3CCN(C(=O)CCO)[C@H](C)C3)nc2C2CC2)c1 [Compound 707, (R)-6-cyclopropyl-2-(4-(3-hydroxypropanoyl)-3-methylpiperazin-1-yl)-5-((4-vinylpyridin-2-yl)amino)nicotinonitrile]
> 6.30	> 6.30	> 6.30	–	C=Cc1ncc2c(-c3cc(C#N)c(N4CCN(C(=O)CCO)[C@H](C)C4)nc3C3CC3)cccc2n1 [Compound 652, (R)-6-cyclopropyl-2-(4-(3-hydroxypropanoyl)-3-methylpiperazin-1-yl)-5-(2-vinylquinazolin-5-yl)nicotinonitrile]
> 6.30	> 6.30	> 6.30	–	C=Cc1cc(-c2cc(C#N)c(N3CCN(C(=O)COC)[C@H](C4CC4)C3)nc2C2CC2)cnn1 [Compound 715, (R)-6-cyclopropyl-2-(3-cyclopropyl-4-(2-methoxyacetyl)piperazin-1-yl)-5-(6-vinylpyridazin-4-yl)nicotinonitrile]
> 6.30	> 6.30	> 6.30	–	C=Cc1ccc2ccc(Nc3cc(C#N)c(N4CCN(C(=O)CCOC)[C@H](C)C4)nc3C3CC3)cc2n1 [Compound 732, (R)-6-cyclopropyl-2-(4-(3-methoxypropanoyl)-3-methylpiperazin-1-yl)-5-(2-vinylquinolin-7-ylamino) nicotinonitrile]
